Measured values taken from patent US20260306680A1, “RADIOLABELED COMPOUNDS TARGETING THE PROSTATE-SPECIFIC MEMBRANE ANTIGEN” (PROVINCIAL HEALTH SERVICES AUTHORITY, priority 2022, published 2026).
Like-named read-outs stand apart in the source and are kept apart here.

Tests used:
[1] = Ex vivo biodistribution in mice bearing LNCaP tumor xenografts; set-up: species or system mouse (male NOD-scid IL2Rg^null (NSG)); settings: mouse, iv, mean ± SD
Protocol: (§1) All imaging and biodistribution studies used male NOD-scid IL2Rg^null (NSG) mice and conducted according to the guidelines established by the Canadian Council on Animal Care and approved by Animal Ethics Committee of the University of British Columbia. For tumor inoculations, mice were anesthetized via inhalation of 2% isoflurane in oxygen and implanted subcutaneously with 5×10^6 LNCaP cells below the left shoulder. Imaging and biodistribution studies were performed only after tumors grew to 5-8 mm in diameter.
(§2) For PET/CT imaging studies, approximately 5 MBq of the ^18F-labeled tracer was injected through the tail vein. While for ex vivo biodistribution studies, mice were injected with around 2 MBq of the ^18F-labeled tracer through the tail vein. Mice were allowed to recover and roam freely in the cages after injecting the tracer. At 45 min post-injection, imaging mouse were sedated again and positioned on the scanner. A 10 min CT scan was conducted first to allow for localization and attenuation correction for later reconstruction of PET images. A 10 min PET image was acquired following CT scan. Heating pads were used during the entire procedure to keep the mice warm and circulate the blood. At 1 h post-injection, all mice for biodistribution study were euthanized with blood drawn from heart, and all tissues of interest were collected, rinsed with PBS, blotted dry, weighed, and counted using an automated gamma counter. The uptake in each organ/tissue was normalized to the injected dose and expressed as the percentage of the injected dose per gram of tissue (% ID/g).
(§3) Representative maximum intensity projection PET images of ^18F-KLF1007-pyridine-BF3 and ^18F-KL01040 acquired at 1 h post-injection from LNCaP tumor-bearing mice is enumerated in Table 4 and shown in FIG. 1. Representative maximum intensity projection PET images of ^18F-KL01120 and ^18F-KL01130 acquired at 1 h post-injection from LNCaP tumor-bearing mice is also enumerated in Table 5 and shown in FIG. 2 (^18F-KL1120) and enumerated in Table 6 and shown in FIG. 3 (^18F-KL01130).

LNCaP tumor xenografts = assay: as above; set-up: species or system mouse (male NOD-scid IL2Rg^null (NSG)); settings: mean ± SD
Protocol: as §1, §2, §3

[2] = adrenal glands, 1 h post-injection, read-out: Adrenal Glands uptake
[3] = blood, 1 h post-injection, read-out: Blood uptake
[4] = bone, 1 h post-injection, read-out: Bone uptake
[5] = brain, 1 h post-injection, read-out: Brain uptake
[6] = fat, 1 h post-injection, read-out: Fat uptake
[7] = heart, 1 h post-injection, read-out: Heart uptake
[8] = kidneys, 1 h post-injection, read-out: Kidneys uptake
[9] = lacrimal glands, 1 h post-injection, read-out: Lacrimal Glands uptake
[10] = liver, 1 h post-injection, read-out: Liver uptake
[11] = lncap tumor, 1 h post-injection, read-out: LNCaP Tumor uptake
[12] = lungs, 1 h post-injection, read-out: Lungs uptake
[13] = muscle, 1 h post-injection, read-out: Muscle uptake
[14] = pancreas, 1 h post-injection, read-out: Pancreas uptake
[15] = salivary glands, 1 h post-injection, read-out: Salivary Glands uptake
[16] = seminal glands, 1 h post-injection, read-out: Seminal Glands uptake
[17] = small intestine, 1 h post-injection, read-out: Small Intestine uptake
[18] = spleen, 1 h post-injection, read-out: Spleen uptake
[19] = stomach, 1 h post-injection, read-out: Stomach uptake
[20] = testes, 1 h post-injection, read-out: Testes uptake
[21] = thyroid, 1 h post-injection, read-out: Thyroid uptake
[22] = 1 h Blocked (co-injection of 2-PMPA, 0.5 mg)

## O=C(O)CCC[C@H](NC(=O)N[C@@H](CCCCNC(=O)[C@H](Cc1c2ccccc2cc2ccccc12)NC(=O)[C@H]1CC[C@H](CNC(=O)[C@H](CCCCNC(=O)c2ccc(F)nc2)NC(=O)CN(CC(=O)O)CC(=O)O)CC1)C(=O)O)C(=O)O [^18F-KL01040]
[1]; [2]
  tissue uptake at 1 h: 1.05 ± 0.26 %ID/g
[1]; [3]
  tissue uptake at 1 h: 1.96 ± 0.37 %ID/g
[1]; [4]
  tissue uptake at 1 h: 0.6 ± 0.18 %ID/g
[1]; [5]
  tissue uptake at 1 h: 0.11 ± 0.08 %ID/g
[1]; [6]
  tissue uptake at 1 h: 0.61 ± 0.15 %ID/g
[1]; [7]
  tissue uptake at 1 h: 0.56 ± 0.14 %ID/g
[1]; [8]
  tissue uptake at 1 h: 33.2 ± 10.1 %ID/g
[1]; [9]
  tissue uptake at 1 h: 0.23 ± 0.06 %ID/g
[1]; [10]
  tissue uptake at 1 h: 0.58 ± 0.15 %ID/g
[1]; [11]
  tissue uptake at 1 h: 11.2 ± 2.06 %ID/g
[1]; [12]
  tissue uptake at 1 h: 1.56 ± 0.4 %ID/g
[1]; [13]
  tissue uptake at 1 h: 0.29 ± 0.06 %ID/g
[1]; [14]
  tissue uptake at 1 h: 0.38 ± 0.05 %ID/g
[1]; [15]
  tissue uptake at 1 h: 0.79 ± 0.11 %ID/g
[1]; [16]
  tissue uptake at 1 h: 0.26 ± 0.06 %ID/g
[1]; [17]
  tissue uptake at 1 h: 2.54 ± 0.5 %ID/g
[1]; [18]
  tissue uptake at 1 h: 0.83 ± 0.41 %ID/g
[1]; [19]
  tissue uptake at 1 h: 0.2 ± 0.07 %ID/g
[1]; tail, 1 h post-injection, read-out: Tail uptake
  tissue uptake at 1 h: 1.31 ± 0.41 %ID/g
[1]; [20]
  tissue uptake at 1 h: 0.47 ± 0.07 %ID/g
[1]; [21]
  tissue uptake at 1 h: 0.6 ± 0.06 %ID/g

## O=C(O)CC[C@H](NC(=O)N[C@@H](CCCCNC(=O)[C@H](Cc1c2ccccc2cc2ccccc12)NC(=O)[C@H]1CC[C@H](CNC(=O)[C@H](CCNC(=O)c2ccc(F)nc2)NC(=O)CCC(=O)N(CC(=O)O)CC(=O)O)CC1)C(=O)O)C(=O)O [^18F-KL01120]
[1]; adrenal glands, 1 h Blocked (co-injection of 2-PMPA, 0.5 mg), read-out: Adrenal Glands uptake
  tissue uptake at 1 h: 0.48 ± 0.21 %ID/g
[1]; [2]
  tissue uptake at 1 h: 11.2 ± 4.71 %ID/g
[1]; blood, 1 h Blocked (co-injection of 2-PMPA, 0.5 mg), read-out: Blood uptake
  tissue uptake at 1 h: 0.86 ± 0.2 %ID/g
[1]; [3]
  tissue uptake at 1 h: 0.71 ± 0.14 %ID/g
[1]; bone, 1 h Blocked (co-injection of 2-PMPA, 0.5 mg), read-out: Bone uptake
  tissue uptake at 1 h: 0.35 ± 0.23 %ID/g
[1]; [4]
  tissue uptake at 1 h: 0.92 ± 0.46 %ID/g
[1]; brain, 1 h Blocked (co-injection of 2-PMPA, 0.5 mg), read-out: Brain uptake
  tissue uptake at 1 h: 0.03 %ID/g
[1]; [5]
  tissue uptake at 1 h: 0.05 ± 0.01 %ID/g
[1]; fat, 1 h Blocked (co-injection of 2-PMPA, 0.5 mg), read-out: Fat uptake
  tissue uptake at 1 h: 0.18 ± 0.05 %ID/g
[1]; [6]
  tissue uptake at 1 h: 1.57 ± 0.55 %ID/g
[1]; heart, 1 h Blocked (co-injection of 2-PMPA, 0.5 mg), read-out: Heart uptake
  tissue uptake at 1 h: 0.35 ± 0.06 %ID/g
[1]; [7]
  tissue uptake at 1 h: 2.9 ± 0.66 %ID/g
[1]; kidneys, 1 h Blocked (co-injection of 2-PMPA, 0.5 mg), read-out: Kidneys uptake
  tissue uptake at 1 h: 4.29 ± 1.34 %ID/g
[1]; [8]
  tissue uptake at 1 h: 88.1 ± 17.4 %ID/g
[1]; lacrimal glands, 1 h Blocked (co-injection of 2-PMPA, 0.5 mg), read-out: Lacrimal Glands uptake
  tissue uptake at 1 h: 0.07 ± 0.05 %ID/g
[1]; [9]
  tissue uptake at 1 h: 0.06 ± 0.03 %ID/g
[1]; large intestine, 1 h Blocked (co-injection of 2-PMPA, 0.5 mg), read-out: Large Intestine uptake
  tissue uptake at 1 h: 0.25 ± 0.1 %ID/g
[1]; large intestine, 1 h post-injection, read-out: Large Intestine uptake
  tissue uptake at 1 h: 1.11 ± 0.42 %ID/g
[1]; liver, 1 h Blocked (co-injection of 2-PMPA, 0.5 mg), read-out: Liver uptake
  tissue uptake at 1 h: 0.59 ± 0.1 %ID/g
[1]; [10]
  tissue uptake at 1 h: 2.64 ± 0.57 %ID/g
[1]; lncap tumor, 1 h Blocked (co-injection of 2-PMPA, 0.5 mg), read-out: LNCaP Tumor uptake
  tissue uptake at 1 h: 1.87 ± 0.46 %ID/g
[1]; [11]
  tissue uptake at 1 h: 6.21 ± 1.25 %ID/g
[1]; lungs, 1 h Blocked (co-injection of 2-PMPA, 0.5 mg), read-out: Lungs uptake
  tissue uptake at 1 h: 0.81 ± 0.18 %ID/g
[1]; [12]
  tissue uptake at 1 h: 4.1 ± 0.71 %ID/g
[1]; muscle, 1 h Blocked (co-injection of 2-PMPA, 0.5 mg), read-out: Muscle uptake
  tissue uptake at 1 h: 0.27 ± 0.18 %ID/g
[1]; [13]
  tissue uptake at 1 h: 0.9 ± 0.2 %ID/g
[1]; pancreas, 1 h Blocked (co-injection of 2-PMPA, 0.5 mg), read-out: Pancreas uptake
  tissue uptake at 1 h: 0.27 ± 0.07 %ID/g
[1]; [14]
  tissue uptake at 1 h: 2.22 ± 0.66 %ID/g
[1]; salivary glands, 1 h Blocked (co-injection of 2-PMPA, 0.5 mg), read-out: Salivary Glands uptake
  tissue uptake at 1 h: 0.35 ± 0.08 %ID/g
[1]; [15]
  tissue uptake at 1 h: 9.18 ± 2.36 %ID/g
[1]; seminal gland, 1 h Blocked (co-injection of 2-PMPA, 0.5 mg), read-out: Seminal Gland uptake
  tissue uptake at 1 h: 0.76 ± 0.19 %ID/g
[1]; [16]
  tissue uptake at 1 h: 0.98 ± 0.42 %ID/g
[1]; small intestine, 1 h Blocked (co-injection of 2-PMPA, 0.5 mg), read-out: Small Intestine uptake
  tissue uptake at 1 h: 1.83 ± 0.37 %ID/g
[1]; [17]
  tissue uptake at 1 h: 4.51 ± 0.87 %ID/g
[1]; spleen, 1 h Blocked (co-injection of 2-PMPA, 0.5 mg), read-out: Spleen uptake
  tissue uptake at 1 h: 0.29 ± 0.03 %ID/g
[1]; [18]
  tissue uptake at 1 h: 22.1 ± 2.92 %ID/g
[1]; stomach, 1 h Blocked (co-injection of 2-PMPA, 0.5 mg), read-out: Stomach uptake
  tissue uptake at 1 h: 0.14 ± 0.06 %ID/g
[1]; [19]
  tissue uptake at 1 h: 0.68 ± 0.17 %ID/g
[1]; testes, 1 h Blocked (co-injection of 2-PMPA, 0.5 mg), read-out: Testes uptake
  tissue uptake at 1 h: 0.28 ± 0.07 %ID/g
[1]; [20]
  tissue uptake at 1 h: 0.92 ± 0.29 %ID/g
[1]; thyroid, 1 h Blocked (co-injection of 2-PMPA, 0.5 mg), read-out: Thyroid uptake
  tissue uptake at 1 h: 0.33 ± 0.08 %ID/g
[1]; [21]
  tissue uptake at 1 h: 4.53 ± 0.74 %ID/g
LNCaP tumor xenografts; [22]
  Tumor:Muscle uptake ratio: 9.96 ± 3.13
  Tumour:Blood uptake ratio: 2.21 ± 0.46
  Tumour:Bone uptake ratio: 8.46 ± 4.80
  Tumour:Kidney uptake ratio: 0.45 ± 0.05
LNCaP tumor xenografts; 1 h post-injection
  Tumor:Muscle uptake ratio: 6.58 ± 1.38
  Tumour:Blood uptake ratio: 8.41 ± 2.02
  Tumour:Bone uptake ratio: 9.31 ± 3.39
  Tumour:Kidney uptake ratio: 0.07 ± 0.02
